# Earlier results as cited in patent US20210008004A1, “CANNABINOID FORMULATIONS AND METHODS INCLUDING THE ANTIOXIDANT C60” (priority 2017, published 2021).
# Columns and labels:
# CB1 receptor = CB1 receptor (Homo sapiens, UniProt P21554)
# peripheral CB2-receptors = peripheral CB2-receptors (Homo sapiens, UniProt P34972); conditions: in vivo
# Chain of peripheral CB2-receptors (P34972 whole entry): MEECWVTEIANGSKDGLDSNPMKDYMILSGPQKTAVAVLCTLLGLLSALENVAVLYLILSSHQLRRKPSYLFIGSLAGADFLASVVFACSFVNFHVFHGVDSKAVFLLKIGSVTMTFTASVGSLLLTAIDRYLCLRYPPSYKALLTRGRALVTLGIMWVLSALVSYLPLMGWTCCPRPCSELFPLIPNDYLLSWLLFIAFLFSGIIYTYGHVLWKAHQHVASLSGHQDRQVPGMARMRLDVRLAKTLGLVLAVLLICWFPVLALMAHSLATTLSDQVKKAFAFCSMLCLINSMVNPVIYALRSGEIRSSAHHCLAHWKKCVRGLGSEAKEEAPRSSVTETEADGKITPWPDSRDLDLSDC
# Chain of CB1 receptor (P21554 whole entry): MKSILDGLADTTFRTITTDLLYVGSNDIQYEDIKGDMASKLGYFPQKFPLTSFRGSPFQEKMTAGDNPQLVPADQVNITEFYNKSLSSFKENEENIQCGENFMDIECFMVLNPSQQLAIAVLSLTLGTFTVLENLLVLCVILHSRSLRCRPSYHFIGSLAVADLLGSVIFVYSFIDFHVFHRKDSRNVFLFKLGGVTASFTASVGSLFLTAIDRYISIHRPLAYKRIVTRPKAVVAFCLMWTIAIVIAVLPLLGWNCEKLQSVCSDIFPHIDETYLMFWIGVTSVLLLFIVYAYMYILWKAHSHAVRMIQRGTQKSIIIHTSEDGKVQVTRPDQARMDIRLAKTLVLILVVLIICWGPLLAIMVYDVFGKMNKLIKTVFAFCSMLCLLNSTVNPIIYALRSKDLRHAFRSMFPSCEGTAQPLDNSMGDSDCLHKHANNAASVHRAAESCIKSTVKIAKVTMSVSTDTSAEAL
smiles,measurement,setting,value
COc1ccc(/C=C/c2cc(OC)cc(=O)o2)cc1 [Yangonin],affinity to the CB1 receptor,CB1 receptor,significant affinity
"c12c3c4c5c1c1c6c7c2c2c8c3c3c9c4c4c%10c5c5c1c1c6c6c%11c7c2c2c7c8c3c3c8c9c4c4c9c%10c5c5c1c1c6c6c%11c2c2c7c3c3c8c4c4c9c5c1c1c6c2c3c41 [Example C60, buckminsterfullerene]",solubility in lipids or aqueous solutions,,not typically soluble
same,toxicity,rodent; even high doses,does not exhibit toxicity
same,rodent life span,rodent; some rodents,doubled
C=C1CC/C=C(\C)CC[C@@H]2[C@@H]1CC2(C)C [beta-caryophyllene],agonist activity at peripheral CB2-receptors,peripheral CB2-receptors,selective agonist
